Measured values: US11059833B2, “BCKDK inhibitors” (Pfizer Inc., priority 2019, dated 2021)
Where two headings read alike, the source gives them in different places.

Key:
human BCKDK = target: T1, human BCKDK (Homo sapiens, UniProt O14874); assay: In Vitro FRET (TR-FRET) BCKDK activity assay, phosphorylation of BCKDHE1α-E2 fusion substrate; assay type: biochemical
T1 construct: human BCKDK (residues 31-412 of the protein pre-processing); 6xHis (N, cleaved yes); MBP (N, cleaved yes); TEV protease site (ENLYFQG) (N, cleaved yes); made in house; host or cells: BL21(DE3) E. coli, co-expressed with GroEL-GroES
Protocol: For lipoylation, fusion substrate was incubated with LpIA at a 10:1 (substrate:LplA) ratio in 20 mM sodium phosphate pH 7.4, 6 mM MgCl2, 4 mM ATP, 2 mM DTT, 3 mM DL-6,8-thioctic acid at 37° C.
BCKDK activity was monitored by phosphorylation of a HIS-tagged fusion BCKDHE1α-E2 substrate protein as described above and was detected using a time resolved-fluorescence resonance energy transfer (TR-FRET) assay system. Compounds were spotted into a 384 well plate, and purified human BCKDK protein was added to the plated compound. […] The reaction was terminated with EDTA. […] Signal intensity was proportional to the level of BCKDK-mediated substrate phosphorylation. Reactions were normalized to zero percent effect with DMSO and one hundred percent effect with 600 μM Radicicol, a known BCKDK inhibitor. IC50 curves were generated using ABASE software (IDBS, Boston Mass.).

[1] = test system: phosphorylation of S293 BCKDH; assay: Phospho BCKDHA AlphaLISA in human skeletal myocytes; assay type: cell-based; conditions: 1 h, 60 minutes, geometric mean
Protocol: Prior to conducting the assay, BCKDH antibodies (Bethyl A303-790A) were biotinylated using the ChromaLink™ One-Shot Antibody Biotinylation Kit B-9007-009K and phospho Ser293 BCKDHA antibodies (Bethyl A304-672A) were directly conjugated to AlphaLISA Acceptor Beads (custom conjugation performed by Perkin Elmer's Lance/Delfia Custom Services, Boston Mass.). Human skeletal myocytes (Gibco A11440) were plated in a 384 well plate at a density of 7500 live cells/well and grown in skeletal muscle growth media containing the media supplement and chick embryo extract (Promocell C-23060 and C-23160, MP92850145). After overnight incubation, media was removed, and BCKDK inhibitors were added in assay media (growth media diluted 10-fold in PBS). After 60 minutes, the media was removed, the cells were washed with PBS and lysed in 10 μL of buffer (Cell Signaling #9803) containing 2 nM biotinylated total BCKDH antibodies. Samples were incubated for 60 minutes, and 5 μL of AlphaLISA acceptor beads conjugated with phospho-S293 BCKDH antibodies were added 1× Alpha buffer. After a 60 minute incubation, 5 μL streptavidin donor beads (40 μg/μL) beads were added in 1× Alpha buffer while protecting from light. Fluorescence was emitted when the phospho and total BCKDH antibodies were within proximity, signifying phosphorylation of S293 BCKDH. Fluorescence was monitored on the Envision plate reader. The zero percent effect was determined from DMSO treatment and the maximal effect was assessed relative to the BCKDK inhibitor BT2. IC50 curves were generated using ActivityBase software (IDBS, Boston Mass.).

[2] = test system: Dahl salt sensitive male rats; assay: Heart failure rat model (high salt diet); assay type: in vivo; conditions: 100 mg/kg PO once daily
Protocol: Dahl salt sensitive male rats (Charles River strain SS/JrHsdMcwiCrl) were fed control diet or 6% high salt diet (iD03121701-AIN-76a rodent diet with added 6% NaCl) for 21 weeks in total. At week 5, the high salt diet-fed rats were dosed PO with 100 mg/kg BT2 or vehicle once daily for the last 16 weeks of study. Echocardiography was performed at week 18 (myocardial performance index (MPI): control diet 0.567±0.034, high salt+vehicle 0.810±0.039, high salt+BT2 0.660±0.030; Isovolumic relaxation time (IVRT): control diet 23.154±0.60 ms, high salt+vehicle 36.507±2.20 ms, high salt+BT2 31.605±1.78 ms; Intraventricular septal thickness at diastole (IVDd): control 2.03±0.088 mm, high salt+vehicle 2.877±0.110 mm, high salt+BT2 2.489±0.089 mm). NT-pro-BNP (MSD K153JKD; control […], high salt+vehicle 1003.0±200.8 μg/mL, high salt+BT2 503.4±84.96 μg/mL), and proANP (MSD K153MBD; control 33.50±5.4 ng/mL, high salt 65.19±8.3 ng/mL, high salt+BT2 38.81±7.0 ng/mL) levels were measured in plasma using MSD assays at the terminal time point. Heart weights were measured at euthanasia and normalized to tibia length (heart/tibia control 0.033±0.001 g/mm; high salt+vehicle 0.042±0.001 g/mm, high salt+BT2 0.038±0.001 g/mm).

[3] = test system: Mice fed 60% high fat diet; assay: Diabetic animal model: fasting glucose and oral glucose tolerance test; assay type: in vivo; conditions: for Area under the curve for the glucose tolerance test as percent of vehicle treated group: 1 g/kg dextrose; for fasting plasma glucose levels: high fat diet mice, mean±SEM
Protocol: Blood glucose was measured 15, 30, 60, and 120 minutes after the gavage, and the data were plotted and analyzed as area under the curve using GraphPad Prism 8.0 (GraphPad Software, La Jolla, Calif.). Blood was concomitantly collected in EDTA tubes at the 0, 15 and 30 minute time points, spun down at 10K RPM for 10 minutes. […] Area under the curve for the glucose tolerance test as percent of vehicle treated group was 100.0±3 (vehicle, n=29), 100±4 (20 mg/kg, n=18), 87±2 (60 mg/kg, n=30), 78±2 (180 mg/kg, n=16).

[4] = purified human BCKDK, 15 μM ATP, geometric mean, read-out: In Vitro FRET IC50

## O=C(O)c1sc2cc(Cl)ccc2c1Cl [BT2, 3,6-dichloro-1-benzothiophene-2-carboxylic acid]
Human BCKDK
  IC50: 1300 nM
[1]
  IC50: 4500 nM
[2]; at euthanasia (high salt+vehicle 0.042±0.001, control 0.033±0.001)
  heart weight normalized to tibia length (heart/tibia): 0.038±0.001 g/mm
[2]; echocardiography at week 18 (high salt+vehicle 0.810±0.039, control diet 0.567±0.034)
  myocardial performance index (MPI): 0.660±0.030
[2]; echocardiography at week 18 (high salt+vehicle 2.877±0.110, control 2.03±0.088)
  Intraventricular septal thickness at diastole (IVDd): 2.489±0.089 mm
[2]; echocardiography at week 18 (high salt+vehicle 36.507±2.20, control diet 23.154±0.60)
  Isovolumic relaxation time (IVRT): 31.605 ± 1.78 ms
[2]; terminal time point (high salt 65.19±8.3, control 33.50±5.4)
  proANP level in plasma: 38.81 ± 7.0 ng/mL
[2]; terminal time point (high salt+vehicle 1003.0±200.8, control 294.9±26.04)
  NT-pro-BNP level in plasma: 503.4 ± 84.96 µg/mL

## O=C(O)c1sc2cc(F)ccc2c1Cl [BT2F, 3-chloro-6-fluoro-1-benzothiophene-2-carboxylic acid, reference compound]
Human BCKDK; [4]
  IC50: 810 nM

## O=C(O)c1sc2cc(F)sc2c1Cl [Example 1, 3-Chloro-5-fluorothieno[3,2-b]thiophene-2-carboxylic acid]
[1]
  IC50: 720 nM
[3]; 20 mg/kg PO, n=18 (vehicle 100.0±3)
  Area under the curve for the glucose tolerance test as percent of vehicle treated group: 100±4% of vehicle treated group
[3]; 20 mg/kg PO, n=18 (vehicle 237±5)
  fasting plasma glucose levels: 230 ± 8 mg/dL
[3]; 60 mg/kg PO, n=30 (vehicle 100.0±3)
  Area under the curve for the glucose tolerance test as percent of vehicle treated group: 87±2% of vehicle treated group
[3]; 60 mg/kg PO, n=40 (vehicle 237±5)
  fasting plasma glucose levels: 221 ± 4 mg/dL
[3]; 180 mg/kg PO, n=16 (vehicle 100.0±3)
  Area under the curve for the glucose tolerance test as percent of vehicle treated group: 78±2% of vehicle treated group
[3]; 180 mg/kg PO, n=19 (vehicle 237±5)
  fasting plasma glucose levels: 206 ± 5 mg/dL

## O=C(O)c1sc2cc(F)sc2c1Br [Example 2, 3-Bromo-5-fluorothieno[3,2-b]thiophene-2-carboxylic acid]
Human BCKDK; [4]
  IC50: 120 nM
[1]
  IC50: 1500 nM

## O=C(O)c1sc2cc(F)sc2c1C(F)F [Example 3, 3-(Difluoromethyl)-5-fluorothieno[3,2-b]thiophene-2-carboxylic acid]
Human BCKDK; [4]
  IC50: 65 nM
[1]
  IC50: 1800 nM

## O=C(O)c1cc2sc(F)c(F)c2s1 [Example 4, 5,6-Difluorothieno[3,2-b]thiophene-2-carboxylic acid]
Human BCKDK; [4]
  IC50: 58 nM
[1]
  IC50: 390 nM

## O=C(O)c1sc2cc(F)sc2c1F [Example 5, 3,5-Difluorothieno[3,2-b]thiophene-2-carboxylic acid]
Human BCKDK; [4]
  IC50: 140 nM
[1]
  IC50: 410 nM

## Cc1c(F)sc2cc(C(=O)O)sc12 [Example 6, 5-fluoro-6-methylthieno[3,2-b]thiophene-2-carboxylic acid]
Human BCKDK; [4]
  IC50: 230 nM
[1]
  IC50: 4200 nM

## O=C(O)c1sc2cc(Cl)sc2c1F [Example 7, 5-chloro-3-fluorothieno[3,2-b]thiophene-2-carboxylic acid]
Human BCKDK; [4]
  IC50: 260 nM
[1]
  IC50: 1100 nM

## O=C(O)c1sc2c(F)c(F)sc2c1Cl [Example 8, 3-chloro-5,6-difluorothieno[3,2-b]thiophene-2-carboxylic acid]
Human BCKDK; [4]
  IC50: 260 nM
[1]
  IC50: 1800 nM

## Cc1c(C(=O)O)sc2cc(F)sc12 [Example 9, 5-fluoro-3-methylthieno[3,2-b]thiophene-2-carboxylic acid]
Human BCKDK; [4]
  IC50: 280 nM
[1]
  IC50: 1600 nM

## O=C(O)c1cc2sc(F)c(Cl)c2s1 [Example 10, 6-chloro-5-fluorothieno[3,2-b]thiophene-2-carboxylic acid]
Human BCKDK; [4]
  IC50: 330 nM
[1]
  IC50: 3400 nM

## O=C(O)c1sc2cc(Cl)sc2c1C(F)F [Example 11, 5-chloro-3-(difluoromethyl)thieno[3,2-b]thiophene-2-carboxylic acid]
Human BCKDK; [4]
  IC50: 370 nM
[1]
  IC50: 2200 nM

## O=C(O)c1cc2sc(Cl)c(F)c2s1 [Example 12, 5-chloro-6-fluorothieno[3,2-b]thiophene-2-carboxylic acid]
Human BCKDK; [4]
  IC50: 400 nM
[1]
  IC50: 1200 nM

## O=C(O)c1sc2c(F)c(Cl)sc2c1F [Example 13, 5-chloro-3,6-difluorothieno[3,2-b]thiophene-2-carboxylic acid]
Human BCKDK; [4]
  IC50: 470 nM
[1]
  IC50: 1900 nM

## Cc1c(C(=O)O)sc2cc(Cl)sc12 [Example 14, 5-chloro-3-methylthieno[3,2-b]thiophene-2-carboxylic acid]
Human BCKDK; [4]
  IC50: 800 nM

## O=C(O)c1sc2cc(Cl)sc2c1Br [Example 15, ammonium 3-bromo-5-chlorothieno[3,2-b]thiophene-2-carboxylate]
Human BCKDK; [4]
  IC50: 840 nM
[1]
  IC50: 2800 nM

## CCc1c(C(=O)O)sc2cc(Cl)sc12 [Example 16, 5-chloro-3-ethylthieno[3,2-b]thiophene-2-carboxylic acid]
Human BCKDK; [4]
  IC50: 880 nM
[1]
  IC50: 3600 nM
